Measurements reported in patent EP0552765B1, “Benzimidazoles, pharmaceutical compositions containing them and process for their preparation” (Dr. Karl Thomae GmbH, priority 1992, dated 1993).
Where a name gives a salt, the structure may show the parent alone.

Target: Angiotensin II-Rezeptor
Experiment: Angiotensin II receptor binding (displacement of [125I]-Angiotensin II from rat lung homogenate)
Set-up: species or system Ratte
Conditions: Rattenlunge homogenate; 50 pM [125I]-Angiotensin II; 60 Min. at 37°C; IC50 from dose-response curve
Protocol: Methodenbeschreibung Angiotensin II-Rezeptorbindung
Das Gewebe (Rattenlunge) wird in Tris-Puffer (50 mMol Tris, 150 mMol NaCl, 5 mMol EDTA, pH 7.40) homogenisiert und zweimal je 20 Min. bei 20.000 x g zentrifugiert. Das endgültige Pellet wird in Inkubations-Puffer (50 mMol Tris, 5 mMol MgCl2, 0,2 % BSA, pH 7,40) 1:75, bezogen auf das Feuchtgewicht des Gewebes, resuspendiert. Je 0,1 ml Homogenat wird für 60 Min. bei 37°C mit 50 pM [125^I]-Angiotensin II (NEN, Dreieich, FRG) und steigenden Konzentrationen der Testsubstanz in einem Gesamtvolumen von 0,25 ml inkubiert. Die Inkubation wird durch rasche Filtration durch Glasfiber-Filtermatten beendet. Die Filter werden je 4 ml eiskaltem Puffer (25 mMol Tris, 2.5 mMol MgCl2, 0,1 % BSA, pH 7,40) gewaschen. Die gebundene Radioaktivität wird in einem Gamma-Counter ermittelt. Aus der Dosis-Wirkungskurve wird der entsprechende IC50-Wert ermittelt.

Row | Structure (SMILES) | IC50 [nM]
1 | CCCc1nc2c(C)cc(-c3coc(C)n3)cc2n1Cc1ccc(-c2ccccc2C(=O)O)cc1 [Substanz C, 4'-[(2-n-Propyl-4-methyl-6-(2-methyl-oxazol-4-yl)-benzimidazol-1-yl)-methyl]-biphenyl-2-carbonsäure] | 40
2 | CCCc1nc2c(C)cc(-c3cn(C4CCCCCC4)cn3)cc2n1Cc1ccc(-c2ccccc2C(=O)O)cc1 [Substanz E, 4'-[(2-n-Propyl-4-methyl-6-(1-cycloheptyl-imidazol-4-yl)-benzimidazol-1-yl)-methyl]-biphenyl-2-carbonsäure] | 15
3 | CCCc1nc2c(C)cc(-c3cn(C)cn3)cc2n1Cc1ccc(-c2ccccc2C(=O)O)cc1 [Substanz A, 4'-[(2-n-Propyl-4-methyl-6-(1-methyl-imidazol-4-yl)-benzimidazol-1-yl)-methyl]-biphenyl-2-carbonsäure, reference compound] | 1.2
4 | CCOc1nc2ccc(-c3cn(C(C)C)cn3)cc2n1Cc1ccc(-c2ccccc2C(=O)O)cc1 [Substanz D, 4'-[(2-Ethoxy-6-(1-isopropyl-imidazol-4-yl)-benzimidazol-1-yl)-methyl]-biphenyl-2-carbonsäure] | 10

Results, then the compound that gave them:

Row | IC50 [nM] | Structure (SMILES)
5 | 3.4 | CCCc1nc2c(C)cc(-c3cn(CC(N)=O)cn3)cc2n1Cc1ccc(-c2ccccc2C(=O)O)cc1 [Substanz F, 4'-[(2-n-Propyl-4-methyl-6-(1-aminocarbonylmethyl-imidazol-4-yl)-benzimidazol-1-yl)-methyl]-biphenyl-2-carbonsäure]
6 | 1.3 | CCCc1nc2c(C)cc(-c3cn(CCCN(C)C)cn3)cc2n1Cc1ccc(-c2ccccc2C(=O)O)cc1 [Substanz G, 4'-[(2-n-Propyl-4-methyl-6-(1-(3-dimethylaminopropyl)-imidazol-4-yl)-benzimidazol-1-yl)-methyl]-biphenyl-2-carbonsäure-dihydrochlorid-pentahydrat]
